Experiment: Drug level in FVB mouse cerebral cortex at 100 mg/kg, po after 3 hrs
Assay type: ADME, organism-based
Parameters: dose 100 mg/kg, route oral
Settings: read-out: Drug uptake

Question: For `O=S(=O)(c1ccc(Cl)cc1)N1C2CCCC1c1cn[nH]c1C2` (single isomer, unassigned; (+)), which concentration at 3 h is on record?
Answer: 86 nM

Experiment: Drug level in FVB mouse plasma at 100 mg/kg, po after 3 hrs
Assay type: ADME, organism-based
Parameters: dose 100 mg/kg, route oral
Settings: not given

Question: With `O=S(=O)(c1ccc(Cl)cc1)N1C2CCCC1c1cn[nH]c1C2` (single isomer, unassigned; (+)) as the compound, how does the concentration at 3 h read?
Answer: 194 nM

Experiment: Inhibition of gamma-secretase
Settings: not given

Question: Which IC50 does the source give for `CN(C)c1n[nH]c2c1C1CCCC(C2)N1S(=O)(=O)c1ccc(Cl)cc1` (stereo not drawn) here?
Answer: > 10 µM

Question: Which IC50 does the source give for `CSc1n[nH]c2c1C1CCCC(C2)N1S(=O)(=O)c1ccc(Cl)cc1` (stereo not drawn) here?
Answer: 0.39 µM

Question: With `O=S(=O)(c1ccc(Cl)cc1)N1C2CCCC1CC(=NO)C2` (racemic) as the compound, how does the IC50 read?
Answer: 3.3 µM

Question: For `COc1cc(CN([C@@H]2CCCCNC2=O)S(=O)(=O)c2ccc(Cl)cc2)ccc1OCCc1scnc1C`, which IC50 is on record?
Answer: 0.65 µM

Question: With `O=S(=O)(c1ccc(Cl)cc1)N1C2CCCC1c1cnc(O)nc1C2` (stereo not drawn) as the compound, how does the IC50 read?
Answer: > 10 µM

Question: For `COc1ncc2c(n1)CC1CCCC2N1S(=O)(=O)c1ccc(Cl)cc1` (stereo not drawn), which IC50 is on record?
Answer: 9 µM

Question: Which IC50 does the source give for `CC(=O)NC1CC2CCCC(C1)N2S(=O)(=O)c1ccc(Cl)cc1` (racemic) here?
Answer: > 10 µM

Question: Which IC50 does the source give for `CNC1CC2CCCC(C1)N2S(=O)(=O)c1ccc(Cl)cc1` (racemic) here?
Answer: > 10 µM

Question: For `O=S(=O)(c1ccc(Cl)cc1)N1[C@@H]2CCC[C@H]1C[C@@H](O)C2` (stereo in doubt; 8a), which IC50 is on record?
Answer: 3 µM

Question: With `CC(=O)Nc1n[nH]c2c1C1CCCC(C2)N1S(=O)(=O)c1ccc(Cl)cc1` (stereo not drawn) as the compound, how does the IC50 read?
Answer: 0.07 µM

Question: Which IC50 does the source give for `O=S(=O)(c1ccc(Cl)cc1)N1C2CCCC1CCC2` here?
Answer: 1.3 µM

Question: For `O=S(=O)(c1ccc(Cl)cc1)N1C2CCCC1c1cnoc1C2` (stereo not drawn), which IC50 is on record?
Answer: 3.5 µM

Question: For `N[C@H]1C[C@H]2CCC[C@@H](C1)N2S(=O)(=O)c1ccc(Cl)cc1`, which IC50 is on record?
Answer: > 10 µM

Question: With `O=S(=O)(c1ccc(Cl)cc1)N1C2CCCC1C(F)(F)c1[nH]ncc12` (stereo not drawn) as the compound, how does the IC50 read?
Answer: 0.003 µM

Question: For `Nc1nc2c(s1)C1CCCC(C2)N1S(=O)(=O)c1ccc(Cl)cc1` (stereo not drawn), which IC50 is on record?
Answer: > 10 µM

Question: For `Cn1cc2c(n1)CC1CCCC2N1S(=O)(=O)c1ccc(Cl)cc1` (stereo not drawn), which IC50 is on record?
Answer: > 10 µM

Question: Which IC50 does the source give for `Cn1ncc2c1CC1CCCC2N1S(=O)(=O)c1ccc(Cl)cc1` (stereo not drawn) here?
Answer: > 10 µM

Question: With `O=S(=O)(c1ccc(Cl)cc1)N1C2CCCC1c1cncnc1C2` (stereo not drawn) as the compound, how does the IC50 read?
Answer: 4.7 µM

Question: Which IC50 does the source give for `O=C1c2[nH]ncc2C2CCCC1N2S(=O)(=O)c1ccc(Cl)cc1` (stereo not drawn) here?
Answer: 0.008 µM

Question: Which IC50 does the source give for `Cc1n[nH]c2c1C1CCCC(C2)N1S(=O)(=O)c1ccc(Cl)cc1` (stereo not drawn) here?
Answer: 0.065 µM

Question: With `O=S(=O)(c1ccc(Cl)cc1)N1C2CCCC1c1cn[nH]c1C2` (stereo not drawn) as the compound, how does the IC50 read?
Answer: 0.004 µM

Question: For `O=S(=O)(c1ccc(Cl)cc1)N1C2CCCC1c1c(C(F)(F)F)n[nH]c1C2` (stereo not drawn), which IC50 is on record?
Answer: 0.07 µM

Question: Which IC50 does the source give for `Cc1ccc(S(=O)(=O)C(=O)NC2CC3CCCC(C2)N3S(=O)(=O)c2ccc(Cl)cc2)cc1` (racemic) here?
Answer: 8 µM

Question: For `C[C@@H]1CCC[C@H](C)N1S(=O)(=O)c1ccc(Cl)cc1`, which IC50 is on record?
Answer: 1.7 µM

Question: Which IC50 does the source give for `O=S(=O)(c1ccc(Cl)cc1)N1[C@@H]2CCC[C@H]1C[C@@H](O)C2` (stereo in doubt; 8b) here?
Answer: 0.6 µM

Question: With `Nc1ncc2c(n1)CC1CCCC2N1S(=O)(=O)c1ccc(Cl)cc1` (stereo not drawn) as the compound, how does the IC50 read?
Answer: 5.5 µM

Question: Which IC50 does the source give for `Nc1n[nH]c2c1C1CCCC(C2)N1S(=O)(=O)c1ccc(Cl)cc1` (stereo not drawn) here?
Answer: 0.105 µM

Question: With `O=S(=O)(c1ccc(Cl)cc1)N1C2CCCC1c1c(C(F)F)n[nH]c1C2` (stereo not drawn) as the compound, how does the IC50 read?
Answer: 0.085 µM

Question: With `CSc1ncc2c(n1)CC1CCCC2N1S(=O)(=O)c1ccc(Cl)cc1` (stereo not drawn) as the compound, how does the IC50 read?
Answer: > 10 µM

Question: For `O=C1NCCCC[C@H]1N(Cc1ccc(Br)cc1)S(=O)(=O)c1ccc(Cl)cc1`, which IC50 is on record?
Answer: 0.025 µM

Question: Which IC50 does the source give for `CN1CCCC[C@@H](N(Cc2ccc(Br)cc2)S(=O)(=O)c2ccc(Cl)cc2)C1=O` here?
Answer: 1.7 µM

From ChEMBL document CHEMBL1156311, “Discovery of sulfonamide-pyrazole gamma-secretase inhibitors” (Bioorg Med Chem Lett, 2010)
